“Also recorded” adds a separate entry of the source.
Key:
BALB/c mice [1] = format: in vivo; conditions: for effect on TST immobility compared to vehicle: Day 22 (FIG. 6B), imipramine 15 mg/kg, psilocybin 5 mg/kg Day 1, or both
Protocol: Imipraime (15 mg/kg) was given 1 hour before tail suspension testing on Day 22. […] For positive control, one group was given imipramine which is known to reduce immobility in TST in stressed mice.
Analysis: Simple comparisons between two groups were measured through inferential means.
Psilocybin loading dose was given 3-weeks prior to behavioral testing and imipramine was given 1-hour before testing on each testing day via Intraperitoneal injection (i.p, 5 ml/kg).

BALB/c mice [2] = assay: Elevated plus maze (EPM), anxiety-like behavior
BALB/c mice [3] = assay: Tail suspension test (TST), depression; psilocybin loading dose then psilocybin+CBD+6 MB maintenance

| Molecule | effect on TST immobility compared to vehicle (BALB/c mice [1]) | percentage of time spent in open space / open arms of the EPM (BALB/c mice [2]; Day 14, two weeks after loading dose of 5 mg/kg psilocybin, vs vehicle control, 5 mg/kg) | anxiety (symptoms) in mouse model (BALB/c mice [2]; loading dose psilocybin 5 mg/kg, alone or followed by low dose psilocybin, CBD and 6 mushroom blend) | immobile posture time in TST (BALB/c mice [3]; Day 15, psilocybin loading dose 5 mg/kg on Day 1) | immobility time in TST (BALB/c mice [3]; Day 22 (three weeks after 5 mg/kg loading dose of psilocybin), all groups receiving a loading dose) | depression (symptoms) in mouse model (BALB/c mice [3]; loading dose psilocybin 5 mg/kg, alone or followed by maintenance psilocybin, CBD and 6 mushroom blend) | effect of psilocybin loading dose on anti-depressive properties of imipramine (BALB/c mice [1]; psilocybin 5 mg/kg Day 1, imipramine 15 mg/kg one hour before TST on Day 22 or Day 29) |
| --- | --- | --- | --- | --- | --- | --- | --- |
| CN(C)CCCN1c2ccccc2CCc2ccccc21 [imipramine] | anti-depressant effect | – | – | – | – | – | – |
| [3-(2-dimethylaminoethyl)-1H-indol-4-yl] dihydrogen phosphate [psilocybin] | anti-depressant effect | significantly increased; also recorded: more time | decreased | decreased | significantly lower; also recorded: significant decrease | decreased | potentiate |
